Test results: patent US20170226507A1, “COORDINATE CONTROL OF PATHOGENIC SIGNALING BY THE MIR-130/301 FAMILY IN PULMONARY HYPERTENSION AND FIBROPROLIFERATIVE DISEASES” (The Brigham and Women's Hospital, Inc., priority 2014, published 2017)
“Also recorded” adds a separate entry of the source.

How the values were obtained:
Format in all cases: cell-based, human
endothelin-1 = experiment: Quantification of endothelin-1 by ELISA in conditioned media of PAECs; settings: mimic: normoxia and hypoxia, inhibitors: hypoxia 0.2% O2
Method: Twenty-four hours after transfection PAECs were washed in PBS, and medium was replaced by media without serum. Twenty-four hour later conditioned media from PAEC transfected as indicated were collected and endothelin-1 was measured by ELISA kit (Enzo biosciences) according to the manufacturer's protocol. Human plasma sample (see below) and mouse plasma were also tested for endothelin-1 level by ELISA.

PASMCs = experiment: Proliferation of PASMCs (cell counting, BrdU incorporation, PCNA)
Text: Pre-miRNA oligonucleotides (pre-miR-130a, pre-miR-204, pre-miR-424, and pre-miR-503 and negative control pre-miR-NC1 and premiR-NC2, Life Technologies), anti-miRNAs oligonucleotides (anti-miR-130a and anti-miR-NC, ThermoScientific), tiny LNA oligonucleotides (tiny-130: 5′-[…]-3′ (SEQ ID NO: 3), and tiny-NC 5′-[…]-3′ (SEQ ID NO: 51), Exiqon), siRNAs (PPARγ and scrambled control, Santa Cruz Biotechnology; HIF-1α, HIF-2α, and scrambled control, Life Technologies) were commercially purchased. PAECs and PASMCs were plated and transfected 24 h later at 70-80% confluence using pre-miRNA (5 nM), anti-miRNA (20 nM), tiny-LNA (20 nM) or siRNA (25 nM) with Lipofectamine 2000 reagent (Life Technologies), according to the manufacturers' instructions.
Exponentially growing cells were transfected, collected at the indicated times and counted.
Cells were lysed in RIPA buffer (Santa Cruz Biotechnology) and the protein concentration determined using a Bradford assay (Biorad). Protein lysate ([…]) were resolved by SDS-PAGE and transferred onto a PVDF membrane (Biorad). Membranes were blocked in 5% non-fat milk in TN buffer (50 mM Tris-HCl pH 7.4, 150 mM NaCl) and incubated in the presence of the primary and then secondary antibodies. After washing in TN buffer containing 0.1% Tween, immunoreactive bands were visualized with the ECL system (Amersham Biosciences). […] Primary antibodies for STAT3 (#9139) and P-STAT3 (Tyr-705; #9145) were purchased from Cell Signaling. Primary antibodies against actin (ab 3280), α-smooth-muscle-actin (ab 32575), CD31 (ab28364), and PCNA (ab 29) were obtained from Abcam. Appropriate secondary antibodies (anti-rabbit and anti-mouse) coupled to HRP were used (Santa Cruz Biotechnology).

miR-130/301 family = experiment: RT-qPCR of miR-130/301 family members after transfection of oligonucleotide inhibitors (specificity), PASMCs; settings: normoxia and hypoxia
Text: FIGS. 14A-14C show the comparison of the specificity of miR-130/301 oligonucleotide inhibitors. (FIG. 14A) Overview of the miRNA silencing approach using seed-targeting tiny locked nucleic acid (LNA) molecules. Tiny LNAs were designed as fully LNA-modified oligonucleotides complementary to the seed region of the miR-130/301 family. The high binding affinity of tiny LNA enables functional inhibition of co-expressed members of miRNA seed families, which leads to de-repression of target mRNAs. Sequences shown in FIG. 14A are miR-130a (SEQ ID NO: 4), miR-130b (SEQ ID NO: 5), miR-301a (SEQ ID NO: 6), miR-301b (SEQ ID NO: 7) and tiny-LNA-130 ([…] SEQ ID NO: 3). […] In the setting of exposure to hypoxia (0.2% O2; 24 h) or normoxia (21% O2; 24 h), expression levels of miR-130/301 family members in PAECs (FIG. 14B) and PASMCs (FIG. 14C) were quantified after transfection with anti-miR-130a versus control (anti-miR-NC) (left panels) or tiny-LNA-130 versus control (tiny-LNA-NC) (right panels). […]
Cells were homogenized in 2 ml of QiaZol reagent (Qiagen). […] Total RNA concentration was determined using a ND-1000 micro-spectrophotometer (NanoDrop Technologies).
Mature miRNA expression was evaluated using TaqMan MicroRNA Assays (Life Technologies/Applied Biosystems) and the Applied Biosystems 7900HT Fast Real Time PCR device (Life Technologies/Applied Biosystems). […]

tiny-LNA-130: fully LNA-modified tiny LNA oligonucleotide 5′-ATTGCACT-3′ (SEQ ID NO: 3) complementary to the seed region of the miR-130/301 family (all LNA, backbone and methylation of C not given here)
mature endothelin-1 in conditioned media (endothelin-1): decreased endothelin-1 expression to a greater extent than inhibition of miR-130a alone
number of cells (PASMCs; counted each day during 3 days): greater decrease in the number of cells compared with anti-miR-130a
BrdU incorporation (proliferation) (PASMCs; exponentially growing, BrdU pulse 1 h): greater decrease in proliferation compared with anti-miR-130a
PCNA expression (PASMCs; immunoblot 48 hours after transfection): more substantial decrease
expression of all miR-130/301 family members (miR-130/301 family): down-regulated; also recorded: effective inhibitors of the entire miR-130/301 family
